# Test results published in patent US20250340516A1, “Isoquinolinones as Modulators of POLRMT” (Pretzel Therapeutics, Inc., priority 2024, published 2025).
# Target: POLRMT (Homo sapiens (Human), UniProt O00411)
# Assay: homogeneous TR-FRET assay of POLRMT inhibition (mitochondrial transcription, 407 bp RNA product)
# Type: biochemical
# Settings: 7.5 nM POLRMT, 15 nM TFB2M, 30 nM TFAM, 0.5 nM DNA template, 500 μM NTPs, 37° C., 60 minutes, * = aggregation of data sets, read-out: IC50 values for isoquinolinone compounds
# Method: The inhibitory activity of the compounds of the present invention against POLRMT were determined by assays based on Bergbrede, T., et al., “An adaptable high-throughput technology enabling the identification of specific transcription modulators,” SLAC Discov., 22, 378-386 (2017).
# The ability of some compounds of the present invention to inhibit POLRMT were determined in a homogeneous TR-FRET Assay using high-throughput screening in a 384-well plate format. This method is used to monitor the activity of mitochondrial transcription through measurement of its product, a 407 bp long RNA transcript. Detection of the product is facilitated by hybridization of two DNA-oligonucleotide probes to specific and adjacent sequences within the RNA product sequence. Upon annealing of the probes, two fluorophores are coupled directly to an acceptor nucleotide probe (ATTO647, 5′), or introduced via a coupled streptavidin with a biotinylated donor nucleotide probe (Europium cryptate) that is brought into sufficient proximity to serve as a fluorescence-donor-acceptor pair. Thus, a FRET signal at 665 nm is generated upon excitation at 340 nm.
# Proteins used as transcription factors (POLRMT: NP_005026.3, TFAM: NP_003192.1, TFB2M: NP_071761.1) are diluted from their stocks to working concentrations of 1 μM, 20 μM and 4 μM respectively, in a dilution buffer containing 20 mM Tris-HCl (pH 8.0), 200 mM NaCl, 10% (v/v) glycerol, 1 mM Dithiothreitol (DTT), 0.5 mM EDTA.
# DNA template is a pUC18 plasmid with the mitochondrial light strand promotor sequence (1-477) cloned between HindIII and BamHI sites. The DNA template is restriction linearized proximal to the promotor 3′-end (pUC-LSP).
# The reaction mixture (10 uL) containing 7.5 nM POLRMT, 15 nM of TFB2M, 30 nM of TFAM, 0.5 nM of DNA template and 500 μM nucleotide triphosphate mix (NTPs) in a reaction buffer (containing 10 mM Tris-HCl (pH 7.5), 10 mM MgCl2, 40 mM NaCl, 10 mM DTT, 0.005% (w/v) Tween-20, 160 units/ml Rnase inhibitor and 0.1 mg/mL BSA) are dispensed to compounds in microplates, using a Thermo Multidrop® dispenser, and incubated at 37° C. in a VWR INCU-Line incubator for 60 minutes after mixing. No nucleotide triphosphate mix is added to negative control samples. Microplates with compounds to be tested in the assay are prepared from 10 mM compound stocks in 100% DMSO, equal amounts of DMSO without any compound are added to positive control and negative control samples.
# During the incubation, a mix of the detection reagents is prepared in a buffer such that the enzymatic reaction is terminated due to chelating of Mg-ions and increased ionic strength, containing 50 mM Tris-HCl (pH 7.5), 700 mM NaCl, 20 mM EDTA, and 0.01% (w/v) Tween-20. Europium-streptavidin is pre-incubated with a 200-fold molar excess of a random sequence oligonucleotide to block unspecific binding of oligo, for two hours at ambient temperature in the dark. Afterwards, the blocked Europium-streptavidin is kept on ice until use.
# At the end of the enzymatic reaction time, 5 μL detection oligo mix in the detection buffer is added, and assay plates are mixed and kept at ambient temperature for one hour, protected from light. The concentration of the Acceptor nucleotide oligo (e.g., ATTO647N-5′-[…]-3′ (SEQ ID NO: 1)) and Donor nucleotide oligo (e.g., bio-5′-AACACATCTCT(-bio)GCCAAACCCCA-bio-3′ (SEQ ID NO: 2)) in each assay well is 1 nM, and 3 nM, respectively.
# After incubation with oligo mix, 5 μL of pre-blocked Europium-streptavidin reagent is dispensed to each assay well, assay plates are again mixed and kept at ambient temperature for one hour, protected from light.
# The generated signal is measured with BMG Pherastar microtiter plate reader with a TRF light unit, using excitation at 340 nm, an integration time of 200 μs, and a delay time of 100 μs, before detection at 620 nm and 665 nm. The ratio of donor- and acceptor-fluorescence is used as a measure of the generated transcript product (i.e. enzymatic activity).
# Sequence of POLRMT (O00411 42-1230): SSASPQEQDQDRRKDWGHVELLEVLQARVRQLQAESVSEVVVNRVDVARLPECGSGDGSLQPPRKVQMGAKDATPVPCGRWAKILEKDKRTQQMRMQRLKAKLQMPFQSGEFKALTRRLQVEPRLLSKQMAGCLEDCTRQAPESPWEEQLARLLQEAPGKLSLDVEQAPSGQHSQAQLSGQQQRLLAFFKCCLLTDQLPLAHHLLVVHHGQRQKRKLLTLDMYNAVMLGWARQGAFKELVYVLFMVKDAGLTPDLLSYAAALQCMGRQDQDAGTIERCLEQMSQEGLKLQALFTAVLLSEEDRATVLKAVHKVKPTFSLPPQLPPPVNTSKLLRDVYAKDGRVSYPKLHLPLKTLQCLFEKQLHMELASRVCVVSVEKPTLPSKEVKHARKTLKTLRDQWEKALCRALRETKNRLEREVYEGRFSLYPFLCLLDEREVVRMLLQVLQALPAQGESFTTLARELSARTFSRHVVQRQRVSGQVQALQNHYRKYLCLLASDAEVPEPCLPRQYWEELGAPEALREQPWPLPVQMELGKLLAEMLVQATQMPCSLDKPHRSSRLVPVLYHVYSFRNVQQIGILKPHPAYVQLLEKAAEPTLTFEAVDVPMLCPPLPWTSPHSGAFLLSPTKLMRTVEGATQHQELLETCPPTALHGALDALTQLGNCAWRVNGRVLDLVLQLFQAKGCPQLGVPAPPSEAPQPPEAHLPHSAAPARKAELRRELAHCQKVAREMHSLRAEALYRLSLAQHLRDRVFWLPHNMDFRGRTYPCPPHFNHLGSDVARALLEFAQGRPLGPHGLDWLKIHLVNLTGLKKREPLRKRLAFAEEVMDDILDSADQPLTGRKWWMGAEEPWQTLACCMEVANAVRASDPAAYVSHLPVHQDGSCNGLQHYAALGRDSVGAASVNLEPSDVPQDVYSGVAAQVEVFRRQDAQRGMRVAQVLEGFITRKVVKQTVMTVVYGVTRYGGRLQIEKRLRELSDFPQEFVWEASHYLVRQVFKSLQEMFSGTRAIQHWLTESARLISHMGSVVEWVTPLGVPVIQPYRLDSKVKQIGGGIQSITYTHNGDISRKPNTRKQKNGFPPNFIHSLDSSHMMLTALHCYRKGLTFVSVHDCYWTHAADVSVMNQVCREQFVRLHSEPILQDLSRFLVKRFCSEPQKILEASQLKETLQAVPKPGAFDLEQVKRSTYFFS
row,IC50 [µM],Compound
1,0.04,"CCCC1(C(=O)O)CCCN(C(=O)[C@@H](C)Oc2ccc3c(-c4ccccc4C)c[nH]c(=O)c3c2)C1 (single isomer, unassigned) [Example 67]"
2,0.2,"Cc1ccccc1-c1c[nH]c(=O)c2cc(O[C@H](C)C(=O)N3CC[C@@H](N(C)C)C3)ccc12 [Example 64, 7-(((R)-1-((R)-3-(dimethylamino)pyrrolidin-1-yl)-1-oxopropan-2-yl)oxy)-4-(0-tolyl)isoquinolin-1(2H)-one]"
3,0.02,"CCC1(C(=O)O)CCCN(C(=O)[C@@H](C)Oc2ccc3c(-c4ccccc4C)c[nH]c(=O)c3c2)C1 (single isomer, unassigned) [Example 52]"
4,0.009,"Cc1ccccc1-c1c[nH]c(=O)c2cc(O[C@H](C)C(=O)N3CCC[C@H](CC(N)=O)C3)ccc12 [Example 38, 2-((R)-1-((R)-2-((1-oxo-4-(o-tolyl)-1,2-dihydroisoquinolin-7-yl)oxy)propanoyl)piperidin-3-yl)acetamide]"
5,0.04,"Cc1ccccc1-c1c[nH]c(=O)c2cc(O[C@H](C)C(=O)N3CCCC(C4(C(N)=O)CC4)C3)ccc12 (single isomer, unassigned) [Example 41]"
6,0.08,"[2H]C([2H])([2H])c1ccccc1-c1c[nH]c(=O)c2cc(O[C@H](C)C(=O)N3CCN(C(N)=O)CC3)ccc12 [Example 74, (R)-4-(2-((4-(2-(methyl-d3)phenyl)-1-oxo-1,2-dihydroisoquinolin-7-yl)oxy)propanoyl)piperazine-1-carboxamide]"
7,0.04,"CCC1(C(=O)O)CCCN(C(=O)[C@@H](C)Oc2ccc3c(-c4ccccc4C)c[nH]c(=O)c3c2)C1 (single isomer, unassigned) [Example 53]"
8,0.2,"Cc1ccccc1-c1c[nH]c(=O)c2cc(N(C)[C@@H](C)C(=O)N3CCC[C@H](C(=O)O)C3)ccc12 (single isomer, unassigned) [Example 7]"
9,1,"CC(=O)N1CC2CC1CN2C(=O)[C@@H](C)Oc1ccc2c(-c3ccc(F)cc3Cl)c[nH]c(=O)c2c1 (stereo partly drawn) [Example 6, 7-(((2R)-1-(5-acetyl-2,5-diazabicyclo[2.2.1]heptan-2-yl)-1-oxopropan-2-yl)oxy)-4-(2-chloro-4-fluorophenyl)isoquinolin-1(2H)-one]"
10,0.2,"Cc1ccccc1-c1c[nH]c(=O)c2cc(O[C@H](C)C(=O)N3CCC[C@H](N(C)C)C3)ccc12 [Example 32, 7-(((R)-1-((S)-3-(dimethylamino)piperidin-1-yl)-1-oxopropan-2-yl)oxy)-4-(o-tolyl)isoquinolin-1(2H)-one]"
11,0.05,"Cc1ccccc1-c1c[nH]c(=O)c2cc(O[C@H](C)C(=O)N3CC(C(=O)O)CC(F)(F)C3)ccc12 (single isomer, unassigned) [Example 2]"
12,0.1,"CCCC1(C(=O)O)CCCN(C(=O)[C@@H](C)Oc2ccc3c(-c4ccccc4C)c[nH]c(=O)c3c2)C1 (single isomer, unassigned) [Example 66]"
13,37,"CC(=O)N1CCN(C[C@H](C)Oc2ccc3c(-c4ccccc4C)c[nH]c(=O)c3c2)CC1 [Example 55, (S)-7-((1-(4-acetylpiperazin-1-yl)propan-2-yl)oxy)-4-(o-tolyl)isoquinolin-1(2H)-one]"
14,0.1,"Cc1cccc(CO)c1-c1c[nH]c(=O)c2cc(OCC(F)F)ccc12 [Example 72, 7-(2,2-difluoroethoxy)-4-(2-(hydroxymethyl)-6-methylphenyl)isoquinolin-1(2H)-one]"
15,0.1,"Cc1ccccc1-c1c[nH]c(=O)c2cc(O[C@H](C)C(=O)N[C@@H](C)C(N)=O)ccc12 [Example 73, (R)-N-((S)-1-amino-1-oxopropan-2-yl)-2-((1-oxo-4-(o-tolyl)-1,2-dihydroisoquinolin-7-yl)oxy)propanamide]"
16,> 100,"COCCc1ccccc1-c1c[nH]c(=O)c2cc(OCC#N)ccc12 [Example 63, 2-((4-(2-(2-methoxyethyl)phenyl)-1-oxo-1,2-dihydroisoquinolin-7-yl)oxy)acetonitrile]"
17,0.07,"Cc1ccccc1-c1c[nH]c(=O)c2cc(O[C@H](C)C(=O)N3CCC(NC(N)=O)CC3)ccc12 [Example 30, (R)-1-(1-(2-((1-oxo-4-(o-tolyl)-1,2-dihydroisoquinolin-7-yl)oxy)propanoyl)piperidin-4-yl)urea]"
18,2,"CC(=O)N(C)CCN(C)C(=O)[C@@H](C)Oc1ccc2c(-c3ccccc3C)c[nH]c(=O)c2c1 [Example 22, (R)-N-methyl-N-(2-(N-methylacetamido)ethyl)-2-((1-oxo-4-(o-tolyl)-1,2-dihydroisoquinolin-7-yl)oxy)propanamide]"
19,0.2,"CNC1CCN(C(=O)[C@@H](C)Oc2ccc3c(-c4ccccc4C)c[nH]c(=O)c3c2)CC1 [Example 68, (R)-7-((1-(4-(methylamino)piperidin-1-yl)-1-oxopropan-2-yl)oxy)-4-(o-tolyl)isoquinolin-1(2H)-one]"
20,0.02,"Cc1c(F)cccc1-c1c[nH]c(=O)c2cc(O[C@H](C)C(=O)N3CCN(C(N)=O)CC3)ccc12 [Example 57, (R)-4-(2-((4-(3-fluoro-2-methylphenyl)-1-oxo-1,2-dihydroisoquinolin-7-yl)oxy)propanoyl)piperazine-1-carboxamide]"
21,4,"CC(=O)N1CCN(C[C@@H](C)Oc2ccc3c(-c4ccccc4C)c[nH]c(=O)c3c2)CC1 [Example 54, (R)-7-((1-(4-acetylpiperazin-1-yl)propan-2-yl)oxy)-4-(o-tolyl)isoquinolin-1(2H)-one]"
22,0.06,"Cc1ccccc1-c1c[nH]c(=O)c2cc(O[C@H](C)C(=O)N3CCCC(C(C)(C)C(=O)O)C3)ccc12 (single isomer, unassigned) [Example 44]"
23,62,"COc1ccc2c(-c3ccccc3C(C)O)c[nH]c(=O)c2c1 (centres unmarked) [Example 11, 4-(2-(1-hydroxyethyl)phenyl)-7-methoxyisoquinolin-1(2H)-one]"
24,0.05,"C[C@@H](Oc1ccc2c(-c3ccc(F)cc3Cl)c[nH]c(=O)c2c1)C(=O)N1CCCC(C2(C(=O)O)CC2)C1 (single isomer, unassigned) [Example 37]"
25,2,"Cc1ccccc1-c1c[nH]c(=O)c2cc(O[C@H](C)C(=O)N3CCCCC(N(C)C)C3)ccc12 (single isomer, unassigned) [Example 76]"
26,0.06,"Cc1ccccc1-c1c[nH]c(=O)c2cc(O[C@H](C)C(=O)N3CC(C(=O)O)CC(F)(F)C3)ccc12 (single isomer, unassigned) [Example 1]"
27,37,"Cc1ccccc1-c1c[nH]c(=O)c2cc(O[C@@H](C)C(=O)N[C@H](C)C(N)=O)ccc12 [Example 24, (S)-N-((R)-1-amino-1-oxopropan-2-yl)-2-((1-oxo-4-(o-tolyl)-1,2-dihydroisoquinolin-7-yl)oxy)propanamide]"
28,93,"Cc1ccccc1-c1c[nH]c(=O)c2cc(N(C)[C@@H](C)C(=O)N3CCC[C@H](C(=O)O)C3)ccc12 (single isomer, unassigned) [Example 8]"

row,Compound,IC50 [µM]
1,"COCCN1C2CCC1CN(C(=O)[C@@H](C)Oc1ccc3c(-c4ccccc4C)c[nH]c(=O)c3c1)C2 [Example 27, 7-(((2R)-1-(8-(2-methoxyethyl)-3,8-diazabicyclo[3.2.1]octan-3-yl)-1-oxopropan-2-yl)oxy)-4-(o-tolyl)isoquinolin-1(2H)-one]",0.1
